SMILES strings stand for the structures.

With `CCCCCCCCCCCCc1ccc(C(OC(C)=O)C(COC(C)=O)NC(C)=O)s1` (stereo not drawn), the melting point was 105 to 107 °C.

With `C#CCOc1ccccc1OS(=O)(=O)NC(=O)Nc1nc(OC)cc(OC)n1`, the melting point was in the range of 125 to 126 °C.

The compound `CC(=O)OCCN(C(=O)Cn1c(=O)n(C)c2nc(-c3ccccc3)ncc21)c1ccccc1` registered a melting point of 158 to 160 °C.

The compound `COC(=O)CS(=O)C(C)c1ccc(-c2ccccc2F)cc1` (stereo not drawn) came in with a melting point of 79 °C.

The compound `Cn1cc2c(nc(NC(=O)Nc3ccc(CC(=O)O)cc3)n3nc(-c4ccco4)nc23)n1` had a melting point above 300 °C.

For the compound `CNC(=O)c1ccccc1Nc1nc(Nc2ccc3c(c2)CCC(F)(F)CC3)ncc1Cl`, the melting point fell in the range of 160 to 168 °C.

Take `Cc1c(OCc2ccccc2)c(=O)ccn1CCO`: the melting point lay within 192 to 193 °C.

As for `O=C(Nc1cc(C(F)(F)F)cc(C(F)(F)F)c1)c1cnc(Cl)nc1Cl`, the melting point was in the range of 104 to 105 °C.

Regarding `COc1ccc2c(c1)C1=C(CC2)NC(=O)CC1`, the melting point lay within 227 to 228 °C.

For `CCCN(CCc1c[nH]c2ccc(F)cc12)C1COc2ccc3ncccc3c2C1` (stereo not drawn), the melting point is 67 °C.

Compound `Cc1noc(NS(=O)(=O)c2ccccc2-c2ccc(-n3cccn3)cc2)c1C` yielded a melting point of 88 to 98 °C.

As to `N#CC(c1cccc(Cl)c1)N1CCOCC1` (stereo not drawn), the melting point was 72 to 73 °C.

In turn, `COc1ccc(C=CC(=O)O)cc1-c1cc2c(cc1OCc1ccccc1)C(C)(C)CCC2(C)C` registered a melting point of 200 to 202 °C.

Compound `N#Cc1cccc(-c2nc(S(=O)(=O)C(F)(F)F)cc3cccnc23)c1` registered a melting point of 102 to 104 °C.

As for `COc1ccccc1Oc1c(Cl)nc(-c2cccs2)nc1Cl`, the melting point fell in the range of 118 to 120 °C.

Turning to `Cn1ncnc1COc1nn2c(-c3ccccc3)nnc2cc1-c1ccc(Cl)s1`, the melting point fell in the range of 244 to 247 °C.

As for `CCOC(=O)c1cc2c(C)cccc2n1CCCC(=O)O`, the melting point lay in the range of 132 to 133 °C.

As for `FC(F)(F)Oc1ccc(-c2ncc(CBr)cn2)cc1`, the melting point was in the range of 80 to 81 °C.

On to `O=C(CNC1CCCCC1)Nc1ccc([N+](=O)[O-])cc1`, for which the melting point fell in the range of 123 to 125 °C.

Compound `CC1(C)C(=O)Nc2cc3[nH]c(-c4ccco4)nc3cc21` yielded a melting point of 311 to 316 °C.

Compound `CCCCn1cc(C(=O)C(=O)O)c2cc(-c3ccc(Cl)cc3)ccc21` returned a melting point of 136 to 137 °C.

`CCN(c1ccc(N2CCN(c3ccc(OC)cc3)CC2)cc1)c1nnc(C)s1`: the melting point was determined as 187 °C.

For the compound `CC(C)(C)C(=O)C(Br)Oc1ccc(S(=O)(=O)c2ccccc2)cc1` (stereo not drawn), the melting point was in the range of 157 to 162 °C.

Turning to `CC(C)(C)c1ccc(NC(=O)c2ccc(C3(C)OCCCO3)cc2)cc1`, the melting point is 148 to 149 °C.

For the compound `COCCc1nc2c(N)nc3ccccc3c2n1CCCCCCCCNC(=O)c1ccccc1`, the melting point fell in the range of 133 to 138 °C.

In turn, `CC(CC(O)(C(=O)O)C(F)(F)F)c1ccccc1` (stereo not drawn) had a melting point of 145 to 146 °C.

For `CC(C)(C)C(=O)OCn1cnc2c(OCc3ccccc3)nc(N)nc21`, the melting point lay within 161 to 162 °C.

Regarding `Nc1cccc(-n2c(=O)c3c(Cc4ccccc4)n[nH]c3c3cccnc32)c1`, the melting point lay in the range of 277 to 279 °C.

For the compound `COc1cc2c(cc1-c1ccoc1)C(=CNc1ccc(N3CCN(C)CC3)cc1)C(=O)NC2=O`, the melting point lay in the range of 198 to 220 °C.

In turn, `Nc1ccc(SCC2CCCCC2)cc1[N+](=O)[O-]` gave a melting point of 80 to 82 °C.

In turn, `Nc1cccc2c(=O)[nH]sc12` returned a melting point of 161 to 165 °C.

Turning to `CCCCS(=O)(=O)NCC1CCN(C(=O)OCc2ccccc2)CC1`, the melting point was in the range of 83 to 85 °C.

Compound `Oc1ncc(-c2ccc(Cl)cc2)cn1` displayed a melting point of 324 to 327 °C.

Turning to `Nc1nc(-c2ccc(CCCCN3CCN(c4cccc5ccccc45)CC3)cc2)cs1`, the melting point lay within 242 to 245 °C.

Take `CC1(C)CC(=O)CC(C)(C)c2cc(Br)ccc21`: the melting point was 104 to 105 °C.

`O=[N+]([O-])c1ccc(F)c(Br)c1O` displayed a melting point of 65 to 66 °C.

As to `CCOC(=O)c1cnc(CCOC)nc1O`, the melting point was 115 to 118 °C.

On to `CCc1ccc(NS(=O)(=O)c2ccc(N3CCNC3=O)cc2)cc1`, for which the melting point was in the range of 195 to 196 °C.

For `CCN(Cc1cc(Br)ccc1N)c1ccc(C(N)=O)nn1`, the melting point was 208 to 210 °C.

Take `Cn1cnc2c1c1nnc(-c3ccccc3)n1c(=O)n2Cc1ccccc1`: the melting point lay in the range of 255 to 257 °C.

As for `COc1cc2c(cc1O)CCC(=O)N2Cc1cc(OC)c(OC)c(OC)c1`, the melting point was 157 to 158 °C.

The compound `FC(F)(F)c1ccc(-c2cc(C(F)(F)F)n3cnc(-c4cccnc4)c3n2)cc1` returned a melting point of 231 °C.

On to `O=C(O)c1cc(OCc2ccccc2)ccc1OCc1ccccc1`, for which the melting point fell in the range of 107 to 108 °C.

`CC(C)C(c1cncnc1C(F)(F)F)N(C)C(=O)N(C)Cc1ccc(Cl)cc1` (stereo not drawn) yielded a melting point of 95 to 98 °C.

Take `O=C(CC1=C(n2nc(-c3c(-c4ccccc4)nn4ccccc34)ccc2=O)CCCC1)N1CCN(C(c2ccccc2)(c2ccccc2)c2ccccc2)CC1`: the melting point came out at 250 °C.

`CCCCCCCCCCS(=O)(=O)Oc1c(I)cc(I)cc1I` had a melting point of 71 to 72 °C.

`COc1cccc(C(=C/C=C/C(=O)NCCCCc2cccnc2)c2cccc(OC)c2)c1` displayed a melting point of 69 to 73 °C.

As to `COc1ccc(Oc2c(C)cc(O)cc2C)cc1C(C)C`, the melting point lay in the range of 60 to 64 °C.

With `N#Cc1ccc(C(=O)NCc2ccc(N3CC(C(=O)O)OC3=O)cc2)cc1` (stereo not drawn), the melting point was found to be 234 °C.

As to `CN(C)CCCn1c2c(c3cc(C(=O)O)ccc31)CCCCCC2`, the melting point lay in the range of 149 to 150 °C.

For `CN1CCC(C2=C(C#N)C(c3cccc4nonc34)c3c[nH]nc3N2)CC1` (stereo not drawn), the melting point is above 270 °C.

The compound `Cc1oc(-c2ccc(F)cc2)nc1CO` came in with a melting point of 153 to 155 °C.

Compound `CCc1cc2c(cc1OCc1ccccc1)CCC1C2CCC2(C)C(CCO[Si](c3ccccc3)(c3ccccc3)C(C)(C)C)CCC12` (stereo not drawn) gave a melting point of 48 to 50 °C.

Compound `COc1cc(OC)nc(Oc2cccc(Oc3nc(OC)cc(OC)n3)c2CBr)n1` displayed a melting point of 127 °C.

For the compound `CCOC(=O)/C=C/c1ccc(OCc2nc(C)c(C)nc2C)c(OC)c1`, the melting point was 112 °C.

For the compound `O=[N+]([O-])c1cccc(Oc2cccc3cccnc23)c1`, the melting point was 133 to 134 °C.

Compound `Oc1ccc(C2CCOCC2)cc1` yielded a melting point of 164 °C.

As for `CCOC(=O)C(C)(C)OC(=O)c1cc(-n2c(=O)cc(C(F)(F)C(F)(F)F)[nH]c2=O)ccc1Cl`, the melting point is 141 to 143 °C.

Compound `CN1CCN(Cc2cc(N)cc(C(F)(F)F)c2)CC1` showed a melting point of 98 to 99 °C.

`CC(C)(C)C(=O)c1ccc(C(=O)NC(=O)CCc2ccccc2)cc1` yielded a melting point of 137 to 138 °C.

Regarding `O=C1CCC(N2Cc3c(OCc4cccc(CN5CCN(S(=O)(=O)C(F)(F)F)CC5)c4)cccc3C2=O)C(=O)N1` (stereo not drawn), the melting point is 150 to 152 °C.

`O=C(Nc1ccccc1)O[C@@H]1CN=C(c2ccc(Cl)c(Cl)c2)O[C@H]1c1ccccc1` (racemic) gave a melting point of 130 °C.

`CCCNS(=O)(=O)CCCCl`: the melting point fell in the range of 47.5 to 48 °C.

`Cc1cc(C)c(S(=O)(=O)NCCCCNS(=O)(=O)c2c(C)cc(C)cc2C)c(C)c1` returned a melting point of 156 to 158 °C.

Turning to `CN(C(=O)C(F)(F)F)C1(C)CN(c2cc3c(cc2F)c(=O)c(C(=O)O)cn3C2CC2)C1`, the melting point lay in the range of 210 to 215 °C.

For the compound `Nc1ccc(S(=O)(=O)CI)cc1`, the melting point fell in the range of 170 to 172 °C.

`CCOC(=O)N1CCN(C2=Nc3ccc(Br)c4cccc2c34)CC1` registered a melting point of 170 to 174 °C.

For `CN(C(=O)C(C)(C)NC(=O)OCc1ccccc1)c1ccc([N+](=O)[O-])cc1C(=O)c1ccccc1F`, the melting point fell in the range of 168 to 169 °C.

Consider `CNC1Oc2cc(Cl)cc(-c3ccc(Cl)cc3Cl)c2O1` (stereo not drawn), for which the melting point was above 250 °C.

`COc1cc(OC)nc(NC(=O)NS(=O)(=O)c2ccccc2C=O)n1` displayed a melting point of 180 °C.

Regarding `CC(C)(C)c1ccc(C2OCC(CO)(NC(=O)c3c(Cl)cccc3Cl)CO2)cc1` (stereo not drawn), the melting point was 178 to 180 °C.

The compound `O=c1[nH]c2cc(Cl)c([N+](=O)[O-])cc2n(C2CCCCC2)c1=O` yielded a melting point above 300 °C.

As to `O=C(OCc1ccc([N+](=O)[O-])cc1)N1CCC(I)CC1`, the melting point lay in the range of 102 to 104 °C.

Compound `N#CC(Br)c1ccc(Cl)cc1` (stereo not drawn) returned a melting point of 46 to 49 °C.

Compound `Cc1cc2c(C)cc(=O)oc2cc1O` returned a melting point of 273 °C.

In turn, `COc1cc(C(=O)N(C(C)C)C2CCCCC2)ccc1Cn1cnc2ncccc21` had a melting point of 189 to 191 °C.

The compound `O=C(O)c1cccc(C(=O)Nc2cccc3cc(Br)cnc23)c1` displayed a melting point of 275 to 277 °C.

Regarding `COc1ccc(C(=O)Nc2c(C)c(C)c3c(c2C)C(c2ccccc2)C(C)(C)O3)cc1` (stereo not drawn), the melting point was 190 to 192 °C.

The compound `CCCn1nc2c(N)nc3ccccc3c2c1CCCc1cc(C)no1` had a melting point of 183 to 184 °C.

The compound `CCC1CC2C3CC=C4CC(OC(C)=O)CCC4(C)C3CCC2(C)C1C(C)=O` (stereo not drawn) came in with a melting point of 115 °C.

With `CCCc1cc(N2CCC(NCC(O)c3ccnc4ccccc34)CC2)nc2sc(C(N)=O)c(N)c12` (stereo not drawn), the melting point is 170 to 172 °C.

For the compound `CC(C)(C)OC(=O)N[C@H](CCOc1ccc(C#N)cc1)C(=O)O`, the melting point lay in the range of 132 to 146 °C.

On to `COc1nccc(N[C@H]2CC[C@H](c3ccccc3)CC2)c1Br`, for which the melting point was determined as 105 °C.

Compound `O=C(O)C1=Cc2cc(F)c(N3CCC4(CC3)OCCCO4)nc2N(c2ccc(F)cc2F)C1` displayed a melting point of 177 to 178 °C.

The compound `CC(=O)SCSc1cn(C)nn1` yielded a melting point of 71 to 72 °C.

In the case of `CCOC(=O)c1ccc(CCNS(=O)(=O)c2ccc(Cl)cc2)cc1`, the melting point was determined as 88 °C.

Consider `COC(=O)c1cc2cc(OCc3ccccc3)ccc2n1CC(=O)N(C)CCc1ccccc1`, for which the melting point was 155 to 156 °C.

`CC=C(c1ccc(N(C)C)cc1)c1ccc(N(C)C)cc1` registered a melting point of 99 to 101 °C.

One may read the melting point as the temperature, or range, at which the solid turns liquid.

The values are drawn from a melting point compilation (Tetko et al.; mined from patent text by program, amines drawn as free bases though some values may be those of a salt).
